Measured values reported in patent US20260015358A1, “BICYCLIC DERIVATIVES, COMPOSITIONS AND USES THEREOF” (Danatlas Pharmaceuticals Co., Ltd., priority 2023, published 2026).
pIC50: −log10 of the molar value.

Columns and labels:
[1] = molecular target: T1, WRN [UniPro: Q14191 (WRN_HUMAN), N500-C946] (Homo sapiens (Human), UniProt Q14191); assay: WRN ATPase assay (ADP-Glo); assay type: biochemical; details: WRN enzymatic activity assay
[2] = molecular target: T1, WRN [UniPro: Q14191 (WRN_HUMAN), N500-C946]; assay: WRN unwinding assay (FORKF DNA, fluorescence); assay type: biochemical; details: Table 14

T1 sequence (Q14191 500-946): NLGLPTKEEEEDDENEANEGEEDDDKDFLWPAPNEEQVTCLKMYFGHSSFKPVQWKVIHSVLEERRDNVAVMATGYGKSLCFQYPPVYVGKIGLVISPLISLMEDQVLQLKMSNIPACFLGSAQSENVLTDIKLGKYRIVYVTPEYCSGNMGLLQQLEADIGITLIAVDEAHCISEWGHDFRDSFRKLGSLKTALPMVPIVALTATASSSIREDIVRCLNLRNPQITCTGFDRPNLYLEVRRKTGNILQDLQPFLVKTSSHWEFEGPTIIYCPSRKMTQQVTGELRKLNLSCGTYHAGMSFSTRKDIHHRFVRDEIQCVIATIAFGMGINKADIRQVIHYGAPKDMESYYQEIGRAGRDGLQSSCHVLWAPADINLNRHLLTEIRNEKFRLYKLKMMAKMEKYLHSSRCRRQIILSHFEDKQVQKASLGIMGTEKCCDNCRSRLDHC

| SMILES | pIC50 [1] | pIC50 [2] |
| --- | --- | --- |
| CCc1c(N2CCN(C(=O)C(=O)Nc3nnc(Cl)s3)CC2)c(=O)n2nc(C3=CCOCC3)nc2n1CC(=O)Nc1ccc(C(F)(F)F)cc1Cl [Example 351, N-(5-Chloro-1,3,4-thiadiazol-2-yl)-2-(4-(4-(2-((2-chloro-4-(trifluoromethyl)phenyl)amino)-2-oxoethyl)-2-(3,6-dihydro-2H-pyran-4-yl)-5-ethyl-7-oxo-4,7-dihydro-[1,2,4]triazolo[1,5-a]pyrimidin-6-yl)piperazin-1-yl)-2-oxoacetamide] | > 7.00 | > 7.00 |
| CCc1c(N2CCN(C(=O)C(=O)Nc3cc(C)on3)CC2)c(=O)n2nc(N3CCOCC3)nc2n1CC(=O)Nc1ccc(C(F)(F)F)cc1Cl [Example 352, 2-(4-(4-(2-((2-Chloro-4-(trifluoromethyl)phenyl)amino)-2-oxoethyl)-5-ethyl-2-morpholino-7-oxo-4,7-dihydro-[1,2,4]triazolo[1,5-a]pyrimidin-6-yl)piperazin-1-yl)-N-(5-methylisoxazol-3-yl)-2-oxoacetamide] | 6.00 to 7.00 | 6.00 to 7.00 |
| CCc1c(N2CCN(C(=O)C(=O)Nc3nc(C)co3)CC2)c(=O)n2nc(C3=CCOCC3)nc2n1CC(=O)Nc1ccc(C(F)(F)F)cc1Cl [Example 353, 2-(4-(4-(2-((2-Chloro-4-(trifluoromethyl)phenyl)amino)-2-oxoethyl)-2-(3,6-dihydro-2H-pyran-4-yl)-5-ethyl-7-oxo-4,7-dihydro-[1,2,4]triazolo[1,5-a]pyrimidin-6-yl)piperazin-1-yl)-N-(4-methyloxazol-2-yl)-2-oxoacetamide] | > 7.00 | > 7.00 |
| CCc1c(N2CCN(C(=O)C(=O)Nc3ccno3)CC2)c(=O)n2nc(C3=CCOCC3)nc2n1CC(=O)Nc1ccc(C(F)(F)F)cc1Cl [Example 354, 2-(4-(4-(2-((2-Chloro-4-(trifluoromethyl)phenyl)amino)-2-oxoethyl)-2-(3,6-dihydro-2H-pyran-4-yl)-5-ethyl-7-oxo-4,7-dihydro-[1,2,4]triazolo[1,5-a]pyrimidin-6-yl)piperazin-1-yl)-N-(isoxazol-5-yl)-2-oxoacetamide] | > 7.00 | > 7.00 |
| CCc1c(N2CCN(C(=O)C(=O)Nc3nc(C)co3)CC2)c(=O)n2nc(C3=CCOCC3)nc2n1CC(=O)Nc1ccc(C(F)(F)F)cc1F [Example 355, 2-(4-(2-(3,6-Dihydro-2H-pyran-4-yl)-5-ethyl-4-(2-((2-fluoro-4-(trifluoromethyl)phenyl)amino)-2-oxoethyl)-7-oxo-4,7-dihydro-[1,2,4]triazolo[1,5-a]pyrimidin-6-yl)piperazin-1-yl)-N-(4-methyloxazol-2-yl)-2-oxoacetamide] | > 7.00 | > 7.00 |
| CCc1c(N2CCN(C(=O)C(=O)N3CCOCC3)CC2)c(=O)n2nc(C3=CCOCC3)nc2n1CC(=O)Nc1ccc(C(F)(F)F)cc1Cl [Example 356, N-(2-Chloro-4-(trifluoromethyl)phenyl)-2-(2-(3,6-dihydro-2H-pyran-4-yl)-5-ethyl-6-(4-(2-morpholino-2-oxoacetyl)piperazin-1-yl)-7-oxo-[1,2,4]triazolo[1,5-a]pyrimidin-4(7H)-yl)acetamide] | < 6.00 | < 6.00 |
| CCc1c(N2CCN(C(=O)C(=O)NC3CCCC3)CC2)c(=O)n2nc(C3=CCOCC3)nc2n1CC(=O)Nc1ccc(C(F)(F)F)cc1Cl [Example 357, 2-(4-(4-(2-((2-Chloro-4-(trifluoromethyl)phenyl)amino)-2-oxoethyl)-2-(3,6-dihydro-2H-pyran-4-yl)-5-ethyl-7-oxo-4,7-dihydro-[1,2,4]triazolo[1,5-a]pyrimidin-6-yl)piperazin-1-yl)-N-cyclopentyl-2-oxoacetamide] | 6.00 to 7.00 | 6.00 to 7.00 |
| CCc1c(N2CCN(C(=O)C(=O)N3CCCC3)CC2)c(=O)n2nc(C3=CCOCC3)nc2n1CC(=O)Nc1ccc(C(F)(F)F)cc1Cl [Example 358, N-(2-Chloro-4-(trifluoromethyl)phenyl)-2-(2-(3,6-dihydro-2H-pyran-4-yl)-5-ethyl-7-oxo-6-(4-(2-oxo-2-(pyrrolidin-1-yl)acetyl)piperazin-1-yl)-[1,2,4]triazolo[1,5-a]pyrimidin-4(7H)-yl)acetamide] | 6.00 to 7.00 | 6.00 to 7.00 |

Further lines, results first:

| pIC50 [1] | pIC50 [2] | SMILES |
| --- | --- | --- |
| 6.00 to 7.00 | 6.00 to 7.00 | CCc1c(N2CCN(C(=O)C(=O)NC3CC3)CC2)c(=O)n2nc(C3=CCOCC3)nc2n1CC(=O)Nc1ccc(C(F)(F)F)cc1Cl [Example 359, 2-(4-(4-(2-((2-Chloro-4-(trifluoromethyl)phenyl)amino)-2-oxoethyl)-2-(3,6-dihydro-2H-pyran-4-yl)-5-ethyl-7-oxo-4,7-dihydro-[1,2,4]triazolo[1,5-a]pyrimidin-6-yl)piperazin-1-yl)-N-cyclopropyl-2-oxoacetamide] |
| < 6.00 | < 6.00 | CCc1c(N2CCN(C(=O)C(=O)NCC(F)(F)F)CC2)c(=O)n2nc(C3=CCOCC3)nc2n1CC(=O)Nc1ccc(C(F)(F)F)cc1Cl [Example 360, 2-(4-(4-(2-((2-Chloro-4-(trifluoromethyl)phenyl)amino)-2-oxoethyl)-2-(3,6-dihydro-2H-pyran-4-yl)-5-ethyl-7-oxo-4,7-dihydro-[1,2,4]triazolo[1,5-a]pyrimidin-6-yl)piperazin-1-yl)-2-oxo-N-(2,2,2-trifluoroethyl)acetamide] |
| > 7.00 | > 7.00 | CCc1c(N2CCN(C(=O)CNC(=O)c3nc(NC)ccc3F)CC2)c(=O)n2nc(C3=CCOCC3)nc2n1CC(=O)Nc1ccc(C(F)(F)F)cc1Cl [Example 361, N-(2-(4-(4-(2-((2-Chloro-4-(trifluoromethyl)phenyl)amino)-2-oxoethyl)-2-(3,6-dihydro-2H-pyran-4-yl)-5-ethyl-7-oxo-4,7-dihydro-[1,2,4]triazolo[1,5-a]pyrimidin-6-yl)piperazin-1-yl)-2-oxoethyl)-3-fluoro-6-(methylamino) picolinamide] |
| 6.00 to 7.00 | > 7.00 | CCc1c(N2CCN(C(=O)CNc3ncnc4cccnc34)CC2)c(=O)n2nc(C3=CCOCC3)nc2n1CC(=O)Nc1ccc(C(F)(F)F)cc1Cl [Example 362, N-(2-Chloro-4-(trifluoromethyl)phenyl)-2-(2-(3,6-dihydro-2H-pyran-4-yl)-5-ethyl-7-oxo-6-(4-(pyrido[3,2-d]pyrimidin-4-ylglycyl)piperazin-1-yl)-[1,2,4]triazolo[1,5-a]pyrimidin-4(7H)-yl)acetamide] |
| < 6.00 | < 6.00 | CCc1c(N2CCN(C(=O)CNc3ncnc4[nH]ccc34)CC2)c(=O)n2nc(C3=CCOCC3)nc2n1CC(=O)Nc1ccc(C(F)(F)F)cc1Cl [Example 363, 2-(6-(4-((7H-Pyrrolo[2,3-d]pyrimidin-4-yl)glycyl)piperazin-1-yl)-2-(3,6-dihydro-2H-pyran-4-yl)-5-ethyl-7-oxo-[1,2,4]triazolo[1,5-a]pyrimidin-4(7H)-yl)-N-(2-chloro-4-(trifluoromethyl)phenyl)acetamide] |
| > 7.00 | > 7.00 | CCc1c(N2CCN(C(=O)CNC(=O)c3ncncc3O)CC2)c(=O)n2nc(C3=CCOCC3)nc2n1CC(=O)Nc1ccc(C(F)(F)F)cc1Cl [Example 364, N-(2-(4-(4-(2-((2-Chloro-4-(trifluoromethyl)phenyl)amino)-2-oxoethyl)-2-(3,6-dihydro-2H-pyran-4-yl)-5-ethyl-7-oxo-4,7-dihydro-[1,2,4]triazolo[1,5-a]pyrimidin-6-yl)piperazin-1-yl)-2-oxoethyl)-5-hydroxypyrimidine-4-carboxamide] |
| 6.00 to 7.00 | > 7.00 | CCc1c(N2CCN(C(=O)CNC(=O)c3[nH]c(=O)ccc3F)CC2)c(=O)n2nc(C3=CCOCC3)nc2n1CC(=O)Nc1ccc(C(F)(F)F)cc1Cl [Example 365, N-(2-(4-(4-(2-((2-Chloro-4-(trifluoromethyl)phenyl)amino)-2-oxoethyl)-2-(3,6-dihydro-2H-pyran-4-yl)-5-ethyl-7-oxo-4,7-dihydro-[1,2,4]triazolo[1,5-a]pyrimidin-6-yl)piperazin-1-yl)-2-oxoethyl)-3-fluoro-6-oxo-1,6-dihydropyridine-2-carboxamide] |
| > 7.00 | > 7.00 | CCc1c(N2CCN(C(=O)CNC(=O)c3cccc(=O)[nH]3)CC2)c(=O)n2nc(C3=CCOCC3)nc2n1CC(=O)Nc1ccc(C(F)(F)F)cc1Cl [Example 366, N-(2-(4-(4-(2-((2-Chloro-4-(trifluoromethyl)phenyl)amino)-2-oxoethyl)-2-(3,6-dihydro-2H-pyran-4-yl)-5-ethyl-7-oxo-4,7-dihydro-[1,2,4]triazolo[1,5-a]pyrimidin-6-yl)piperazin-1-yl)-2-oxoethyl)-6-oxo-1,6-dihydropyridine-2-carboxamide] |
| > 7.00 | > 7.00 | CCc1c(N2CCN(C(=O)CNC(=O)c3nc(N)ccc3F)CC2)c(=O)n2nc(C3=CCOCC3)nc2n1CC(=O)Nc1ccc(C(F)(F)F)cc1Cl [Example 367, 6-Amino-N-(2-(4-(4-(2-((2-chloro-4-(trifluoromethyl)phenyl)amino)-2-oxoethyl)-2-(3,6-dihydro-2H-pyran-4-yl)-5-ethyl-7-oxo-4,7-dihydro-[1,2,4]triazolo[1,5-a]pyrimidin-6-yl)piperazin-1-yl)-2-oxoethyl)-3-fluoropicolinamide] |
| > 7.00 | > 7.00 | CCc1c(N2CCN(C(=O)CNC(=O)c3nc(C)ncc3O)CC2)c(=O)n2nc(C3=CCOCC3)nc2n1CC(=O)Nc1ccc(C(F)(F)F)cc1Cl [Example 368, N-(2-(4-(4-(2-((2-Chloro-4-(trifluoromethyl)phenyl)amino)-2-oxoethyl)-2-(3,6-dihydro-2H-pyran-4-yl)-5-ethyl-7-oxo-4,7-dihydro-[1,2,4]triazolo[1,5-a]pyrimidin-6-yl)piperazin-1-yl)-2-oxoethyl)-5-hydroxy-2-methylpyrimidine-4-carboxamide] |
| > 7.00 | > 7.00 | CCc1c(N2CCN(C(=O)CNC(=O)c3ccns3)CC2)c(=O)n2nc(C3=CCOCC3)nc2n1CC(=O)Nc1ccc(C(F)(F)F)cc1Cl [Example 369, N-(2-(4-(4-(2-((2-Chloro-4-(trifluoromethyl)phenyl)amino)-2-oxoethyl)-2-(3,6-dihydro-2H-pyran-4-yl)-5-ethyl-7-oxo-4,7-dihydro-[1,2,4]triazolo[1,5-a]pyrimidin-6-yl)piperazin-1-yl)-2-oxoethyl) isothiazole-5-carboxamide] |
